System: bombesin-stimulated amylase secretion
Assay: Bombesin-stimulated pancreatic amylase secretion in the rat
Type: in vivo

D-Phe^6BN(6-13)methylester [I00008]
duration of inhibition of the secretion of amylase (5 nM of the analog, stimulated by 0.5 nM of bombesin, after bolus injection): 150 min
effect on bombesin-stimulated amylase secretion (result in words (Fig. 3)): potent antagonist

— patent publication EP0438519B1, “THERAPEUTIC PEPTIDES” (The Administrators of The Tulane Educational Fund, priority 1988, dated 1998)
